{
  "source": "patent US20150164907A1",
  "about": "“COMPOSITIONS AND METHODS FOR TREATING DISEASE” (ANGION BIOMEDICA CORP., priority 2013, published 2015)",
  "test_system": "SK-BR-3 breast cancer cells",
  "test": "Proliferation of SK-BR-3 breast cancer cells, checkerboard design, Cell Titer Glo after 7 days",
  "type": "cell-based",
  "conditions": "for IC50: Homo sapiens",
  "protocol": "The effect of ATRA in combination with GDC-0941 or NVP-BEZ235 on the proliferation of SK-BR-3 breast cancer cells was evaluated. […] To test the combination of ATRA and PI3Km/TOR inhibitors, cells were plated in a 96-well plate and treated with compounds in a “checkerboard” design. After 7 days the cell proliferation was determined using the Cell Titer Glo reagent (Promega). […] The bliss additivity model predicts the shape of the curve and magnitude of growth inhibition if the effects of two compounds is additive.\nAnother method to determine the interaction between two compounds is the combination index (CI) method, which can be calculated by the computer program Calcusyn.",
  "key": {"[1]": {"conditions": "SK-BR-3, 168 h, in the absence of ATRA, 7 days, read-out: estimated IC50, proliferation of SK-BR-3 growth"}, "[2]": {"conditions": "SK-BR-3, 168 h, in the presence of 10 nM ATRA, 7 days, read-out: IC50, proliferation of SK-BR-3 cells"}},
  "note": "Read-outs that look alike come from different tables or passages of the source.",
  "data": [
    {"smiles": "CS(=O)(=O)N1CCN(Cc2cc3nc(-c4cccc5[nH]ncc45)nc(N4CCOCC4)c3s2)CC1", "note": "[GDC-0941, 2-(1H-indazol-4-yl)-6-(4-methanesulfonyl-piperazin-1-ylmethyl)-4-morpholin-4-yl-thieno[3,2-d]pyrimidine]", "values": [
      {"measurement": "IC50", "setting": "[1]", "value": 126, "unit": "nM"},
      {"measurement": "IC50", "setting": "[2]", "value": 35, "unit": "nM"}
    ]},
    {"smiles": "CC1=C(/C=C/C(C)=C/C=C/C(C)=C/C(=O)O)C(C)(C)CCC1", "note": "[ATRA, all-trans retinoic acid]", "values": [
      {"measurement": "inhibition of cell proliferation by ATRA by itself", "setting": "10 nM ATRA alone", "value": "only mildly inhibited cell proliferation"},
      {"measurement": "IC50", "setting": "SK-BR-3, ATRA alone, read-out: estimated IC50, proliferation of SK-BR-3 cells", "value": 40, "unit": "nM"}
    ]},
    {"smiles": "Cn1c(=O)n(-c2ccc(C(C)(C)C#N)cc2)c2c3cc(-c4cnc5ccccc5c4)ccc3ncc21", "note": "[NVP-BEZ235]", "values": [
      {"measurement": "IC50", "setting": "[1]", "value": 145, "unit": "nM"},
      {"measurement": "IC50", "setting": "[2]", "value": 57, "unit": "nM"}
    ]}
  ]
}
